A word on the IC50: it is the concentration at which inhibition is half-maximal. One may read the inhibition as the change of the read-out against control, counted positive when it falls.

The structures appear in SMILES notation.

In the first assay the target is T1, human MRGPRX4 (Homo sapiens, UniProt Q96LA9).
T1 construct: expressed in transfected cells
T1 sequence (Q96LA9 whole entry): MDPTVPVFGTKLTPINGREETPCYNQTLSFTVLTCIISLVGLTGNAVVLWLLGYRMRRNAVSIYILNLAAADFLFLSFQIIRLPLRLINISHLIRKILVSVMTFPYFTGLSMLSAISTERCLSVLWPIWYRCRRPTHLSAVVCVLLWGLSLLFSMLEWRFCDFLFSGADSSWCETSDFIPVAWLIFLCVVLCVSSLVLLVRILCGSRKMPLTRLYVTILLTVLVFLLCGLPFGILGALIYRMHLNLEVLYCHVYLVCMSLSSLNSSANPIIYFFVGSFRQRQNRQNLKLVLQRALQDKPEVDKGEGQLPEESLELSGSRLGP
In words: MRGPRX4 antagonist calcium (FLIPR, Fluo-8) assay in HEK293T cells stably expressing human MRGPRX4, agonist 0.2 μM deoxycholic acid-3-phosphoric acid. The class given is cell-based. The settings on record: HEK293T cells stably expressing human MRGPRX4; antagonist mode; top conc. 30 μM, ten 3-fold serial dilutions; C may also mean <40% inhibition at 2 μM; read-out: Antagonist activity (IC50 class). As to the method: HEK293T cells stably expressing human MRGPRX4 were cultured in DMEM medium supplements with 10% FBS, 100 U/mL penicillin-streptomycin, 20 mM HEPES and 1 μg/mL puromycin at 37° C. with 5% (v/v) CO2. One day before test, the cells were detached using TrypLE™ Express and counted using cell counter. In a 384-well plate cells were seeded at a density of 20,000 cells/well in 20 uL/well planting medium (DMEM medium supplements with 5% FBS, 100 U/mL penicillin-streptomycin and 20 mM HEPES), and incubated overnight at 37° C. with 5% (v/v) CO2. On the day of experiments, the dye solution, prepared following the manufacture's instruction of the Screen Quest™ Fluo-8 No Wash Calcium Assay Kit, was added to each well (20 μL/well) of the cell plate. The cell plate was incubated at 25° C. for 1 hour. Test compounds in different doses were transferred to the cell plate by FLIPR and the plate was kept in the dark at 25° C. for 30 minutes. The agonist solution, 0.2 μM of deoxycholic acid-3-phosphoric acid in assay buffer, was added to each well of the plate. The plate was read for 160 sec with 1 sec interval to obtain data of antagonist mode in FLIPR. For various compounds, IC50 values were calculated by fitting % inhibition against log of compound concentrations (top conc. 30 μM, ten 3-fold serial dilutions) with Hill equation using XLfit. […] Those skilled in the art appreciate that IC50 of various compounds can be assessed in accordance with the present disclosure.
For `O=C(O)c1cccc([C@@H]2Cc3cc(C(F)(F)F)ccc3O2)c1F` [Compound 52A], the IC50 is < 1 µM.
Same read-out and setting: to `O=C(O)c1cccc([C@H]2Cc3cc(C(F)(F)F)ccc3O2)c1F` [Compound 52B] belongs > 10 µM.
Same read-out and setting: the value for `Fc1c(-c2nnn[nH]2)cccc1[C@@H]1Cc2cc(C(F)(F)F)ccc2O1` [Compound 88] was < 1 µM; that for `Fc1cc(-c2nnn[nH]2)cc(C2Cc3cc(C(F)(F)F)ccc3O2)c1` (centres unmarked) [Compound 91] was < 1 µM.
The same measure, in the same setting: to `Fc1c(-c2nnn[nH]2)cccc1C1Cc2c(ccc3ccccc23)O1` (centres unmarked) [Compound 92] belongs < 1 µM.
On to `Cc1cc(-c2nnn[nH]2)cc(C2Cc3cc(C(F)(F)F)ccc3O2)c1` (centres unmarked) [Compound 94], for which the IC50 is < 1 µM.
On the same count and under the same terms, the value for `Fc1ccc(C2Cc3c(ccc4ccccc34)O2)cc1-c1nnn[nH]1` (centres unmarked) [Compound 97] was < 1 µM; that for `Fc1ccc(C2Cc3cc(C(F)(F)F)ccc3O2)cc1-c1nnn[nH]1` (centres unmarked) [Compound 98] was < 1 µM.
As to `Cc1cc(-c2nnn[nH]2)c(F)c(C2Cc3cc(C(F)(F)F)ccc3O2)c1` (centres unmarked) [Compound 99], the 50% inhibitory concentration (IC50) was < 1 µM.
Regarding `N#Cc1cc(-c2nnn[nH]2)cc(C2Cc3cc(C(F)(F)F)ccc3O2)c1` (centres unmarked) [Compound 101], the half-maximal inhibitory concentration (IC50) was < 1 µM.
Same read-out and setting: to `Fc1c(-c2nnn[nH]2)cccc1[C@@H]1Cc2c(ccc3ccccc23)O1` [Compound 102] belongs < 1 µM; to `Fc1ccc([C@@H]2Cc3c(ccc4ccccc34)O2)cc1-c1nnn[nH]1` [Compound 103], < 1 µM; to `Fc1ccc([C@@H]2Cc3cc(C(F)(F)F)ccc3O2)cc1-c1nnn[nH]1` [Compound 104], < 1 µM.
Same read-out and setting: to `O=c1[nH]c(-c2cccc([C@@H]3Cc4cc(C(F)(F)F)ccc4O3)c2F)no1` [Compound 105] belongs < 1 µM; to `Cn1c(-c2ccc(C(=O)O)cc2)cc2ccc(C(F)(F)F)cc21` [Example 1], 1 to 10 µM; to `Cn1c(-c2ccc(F)c(C(=O)O)c2)cc2ccc(C(F)(F)F)cc21` [Example 2], > 10 µM.
On the same count and under the same terms, the value for `O=C(O)c1ccc(-c2cc3ccc(C(F)(F)F)cc3[nH]2)cc1` [Example 3] was > 10 µM.
For the compound `Cn1c(-c2cccc(C(=O)O)c2)cc2ccc(C(F)(F)F)cc21` [Example 4], the IC50 was > 10 µM.
On the same count and under the same terms, to `CC(C)n1c(-c2ccc(C(=O)O)cc2)cc2ccc(C(F)(F)F)cc21` [Example 5] belongs 1 to 10 µM; to `Cn1c(-c2ccc(C(=O)O)cc2)cc2ccc(C#N)cc21` [Example 6], > 10 µM.
As to `Cn1c(-c2cccc(C(=O)O)c2)cc2ccc(C#N)cc21` [Example 7], the IC50 is > 10 µM.
Turning to `Cn1c(-c2ccc(C(=O)O)cc2)cc2ccc(C(=O)O)cc21` [Example 9], the IC50 was > 10 µM.
The same measure, in the same setting: to `COc1ccc2cc(-c3ccc(C(=O)O)cc3)n(C)c2c1` [Example 10] belongs > 10 µM; to `CC(C)n1c(-c2ccc(C(=O)O)cc2)cc2cc(Cl)c(Cl)cc21` [Example 11], > 10 µM.
Still for that read-out and setting: the value for `Cn1c(-c2ccc(C(=O)O)cc2)cc2cc(Cl)c(Cl)cc21` [Example 12] was > 10 µM; that for `Cn1c(-c2ccc(C(=O)O)cc2)cc2c(Cl)cc(C(F)(F)F)cc21` [Example 13] was 1 to 10 µM; that for `Cn1c(-c2ccc(C(=O)O)cc2F)cc2ccc(C(F)(F)F)cc21` [Example 14] was 1 to 10 µM.
As to `Cn1c(-c2ccc(C(=O)O)cc2)cc2cc(C(F)(F)F)ccc21` [Example 15], the IC50 fell in the range of 1 to 10 µM.
Still for that read-out and setting: the value for `CCCn1c(-c2ccc(C(=O)O)cc2)cc2ccc(C(F)(F)F)cc21` [Example 16] was 1 to 10 µM; that for `CC(C)Cn1c(-c2ccc(C(=O)O)cc2)cc2ccc(C(F)(F)F)cc21` [Example 17] was 1 to 10 µM; that for `CCCn1c(-c2ccc(C(=O)O)cc2F)cc2ccc(C(F)(F)F)cc21` [Example 18] was < 1 µM.
As to `CCCn1c(-c2ccc(C(=O)O)c(F)c2)cc2ccc(C(F)(F)F)cc21` [Example 19], the IC50 lay within 1 to 10 µM.
With `CCCn1c(-c2ccc(C(=O)O)cc2)cc2ccc(F)cc21` [Example 20], the 50% inhibitory concentration (IC50) is > 10 µM.
`CCCn1c(-c2ccc(C(=O)O)cc2)cc2ccc(OC(F)(F)F)cc21` [Example 21]: the IC50 is > 10 µM.
Same read-out and setting: to `Cn1c(-c2ccc(C(=O)O)cc2)cc2c(-c3ccccc3)cccc21` [Example 22] belongs > 10 µM.
For the compound `CCCn1c(-c2ccc(C(=O)O)cc2)cc2ccc(-c3ccccc3)cc21` [Example 23], the IC50 is > 10 µM.
Still for that read-out and setting: to `CCCn1c(-c2ccc(C(=O)O)cc2)cc2ccc(S(C)(=O)=O)cc21` [Example 24] belongs > 10 µM.
Still for that read-out and setting: to `Cn1c(-c2ccc(C(=O)O)cc2)cc2cccc(-c3ccccc3)c21` [Example 25] belongs > 10 µM; to `O=C(O)c1ccc(-c2cc3ccc(C(F)(F)F)cc3n2Cc2ccccc2)cc1` [Example 26], > 10 µM; to `O=C(O)c1ccc(-c2cc3ccc(C(F)(F)F)cc3n2C2CCCC2)cc1` [Example 27], 1 to 10 µM.
Same read-out and setting: the value for `O=C(O)c1ccc(-c2cc3ccc(C(F)(F)F)cc3n2C2CCC2)cc1` [Example 28] was 1 to 10 µM; that for `O=C(O)c1ccc(-c2cc3ccc(C(F)(F)F)cc3n2C2CCCCC2)cc1` [Example 29] was 1 to 10 µM.
Regarding `O=C(O)c1ccc(-c2cc3ccc(C(F)(F)F)cc3n2C2CCCC2)c(F)c1` [Example 30], the IC50 is < 1 µM.
Same read-out and setting: the value for `O=C(O)c1ccc(-c2cc3ccc(C(F)(F)F)cc3n2C2CCCC2)cc1F` [Example 31] was 1 to 10 µM; that for `O=C(O)c1cccc(-c2cc3ccc(C(F)(F)F)cc3n2C2CCCC2)c1F` [Example 32] was > 10 µM; that for `CC(C)n1c(-c2ccc(C(=O)O)cc2)cc2c(Cl)cc(C(F)(F)F)cc21` [Example 33] was > 10 µM.
Consider `O=C(O)c1ccc(-c2cc3ccc(C(F)(F)F)cc3n2-c2ccccc2)cc1` [Example 34], for which the IC50 is 1 to 10 µM.
Same read-out and setting: to `O=C(O)c1ccc(-c2cc3ccc(C(F)(F)F)cc3n2-c2ccccc2)cc1F` [Example 35] belongs > 10 µM; to `O=C(O)c1ccc(-c2cc3ccc(C(F)(F)F)cc3n2-c2ccccc2)c(F)c1` [Example 36], > 10 µM; to `Cn1c(-c2ccc(C(=O)O)cc2)c(F)c2ccc(C(F)(F)F)cc21` [Example 37], > 10 µM.
For `O=C(O)c1ccc(-c2[nH]c3cc(C(F)(F)F)ccc3c2F)cc1` [Example 38], the IC50 is > 10 µM.
Turning to `Cc1c(-c2ccc(C(=O)O)cc2)n(C)c2cc(C(F)(F)F)ccc12` [Example 39], the IC50 was > 10 µM.
Turning to `CN1c2cc(C(F)(F)F)ccc2CC1c1ccc(C(=O)O)cc1` (centres unmarked) [Example 40], the IC50 was > 10 µM.
On the same count and under the same terms, the value for `O=C(O)c1ccc(C2Cc3ccc(C(F)(F)F)cc3N2)cc1` (centres unmarked) [Example 41] was > 10 µM; that for `O=C(O)c1cc(-c2nc3cc(C(F)(F)F)c(Cl)cc3o2)ccc1F` [Example 42] was > 10 µM; that for `O=C(O)c1cccc(-c2nc3cc(C(F)(F)F)cc(Cl)c3o2)c1` [Example 43] was > 10 µM.
Take `O=C(O)c1ccc(-c2nc3c(C(F)(F)F)c(F)ccc3o2)cc1F` [Example 44]: the 50% inhibitory concentration (IC50) was > 10 µM.
Take `O=C(O)c1cc(-c2nc3c(C(F)(F)F)c(Cl)ccc3o2)ccc1F` [Example 45]: the IC50 is > 10 µM.
For `O=C(O)c1cc(F)cc(-c2nc3cc(C(F)(F)F)c(Cl)cc3o2)c1` [Example 46], the IC50 is > 10 µM.
On to `O=C(O)c1ccc(-c2nc3cc(C(F)(F)F)cc(Cl)c3o2)cc1` [Example 47], for which the IC50 is > 10 µM.
Same read-out and setting: to `O=C(O)c1cc(Br)cc(-c2nc3cc(C(F)(F)F)c(Cl)cc3s2)c1` [Example 48] belongs > 10 µM.
On the same count and under the same terms, to `O=C(O)c1cccc(-c2cc3cc(C(F)(F)F)ccc3o2)c1` [Example 50] belongs > 10 µM; to `O=C(O)c1cccc(-c2cc3ccc(C(F)(F)F)cc3o2)c1` [Example 51], > 10 µM.
The same measure, in the same setting: the value for `O=C(O)c1cccc(C2Cc3cc(C(F)(F)F)ccc3O2)c1F` (centres unmarked) [Example 52] was < 1 µM; that for `O=C(O)c1cc(C2Cc3cc(C(F)(F)F)ccc3O2)ccc1F` (centres unmarked) [Example 53] was 1 to 10 µM.

Staying with this assay, now noted: HEK-293T; single concentration 0.5 μM; HEK293T cells stably expressing human MRGPRX4.
In the case of `FC(F)(F)c1ccc2c(c1)CC(c1cc(-c3nnn[nH]3)cc(C3CC3)c1)O2` (centres unmarked) [Compound 90], the inhibition at 0.5 µM was 27%.
Still for that read-out and setting: to `FC(F)(F)c1ccc2c(c1)CC(c1cccc(-c3nnn[nH]3)c1)O2` (centres unmarked) [Compound 93] belongs 24%.
The same measure, in the same setting: the value for `Cc1ccc2c(c1)CC(c1cccc(-c3nnn[nH]3)c1F)O2` (centres unmarked) [Compound 95] was 8.6%; that for `Fc1c(-c2nnn[nH]2)cccc1C1Cc2cc(OC(F)(F)F)ccc2O1` (centres unmarked) [Compound 96] was 3.7%.

Still in this assay, the particulars now being: HEK-293T; single concentration 2 μM; HEK293T cells stably expressing human MRGPRX4.
Take `Fc1c(-c2nnn[nH]2)cccc1[C@H]1Cc2cc(C(F)(F)F)ccc2O1` [Compound 89]: the inhibition at 2 µM was determined as 61%.

Staying with this assay, now noted: S enantiomer 52A versus 52B; see Table 1.
On to `O=C(O)c1cccc([C@@H]2Cc3cc(C(F)(F)F)ccc3O2)c1F` [Compound 52A], for which the “MRGPRX4 inhibition activity, comparison of enantiomers” value is listed as “much higher MRGPRX4 inhibition activity than 52B”.
